Earlier results on 3 compounds are cited in patent US20070292523A1, “Dihydropyrimidine Formulations” (priority 2004, published 2007).

Data set [1] deals with presystemic oxidative metabolism of nimodipine. As to conditions: nimodipine and valproic acid administered in combination (Drugs Aging, 1995, 6, 229-42).
In another data set the test system is cytochrome P450. As to conditions: nimodipine with cimetidine (Drugs Aging, 1995, 6, 229-42).

For `CCCC(CCC)C(=O)O` [valproic acid], the “plasma concentrations of nimodipine” value in data set [1] is “increased plasma concentrations of nimodipine”.

Turning to `COCCOC(=O)C1=C(C)NC(C)=C(C(=O)OC(C)C)C1c1cccc([N+](=O)[O-])c1` (stereo not drawn) [nimodipine, Nimodipine], the solubility in water result is reported as “practically insoluble in water”.

Regarding `CN/C(=N/CCSCc1nc[nH]c1C)NC#N` [cimetidine], the bioavailability of nimodipine entry with cytochrome P450 is “approximate doubling of the bioavailability of nimodipine”.
